According to article PMC4393779 (Journal of neurochemistry, 2015):
Like-named read-outs stand apart in the source and are kept apart here.

Key:
DAT = settings: intact cells; ref Chen et al., 2004b; cited from earlier work
WT hDAT [1] = target: T1, WT hDAT (Homo sapiens, UniProt Q01959); test: [3H]CFT saturation binding, intact HEK-293 cells stably expressing WT DAT; settings: observed, mean ± SE
D436N hDAT [2] = target: T2, D436N hDAT (Homo sapiens, UniProt Q01959, D436N); test: [3H]CFT saturation binding, intact HEK-293 cells stably expressing D436N DAT; settings: observed, mean ± SE
T2 sequence (Q01959 whole entry D436N): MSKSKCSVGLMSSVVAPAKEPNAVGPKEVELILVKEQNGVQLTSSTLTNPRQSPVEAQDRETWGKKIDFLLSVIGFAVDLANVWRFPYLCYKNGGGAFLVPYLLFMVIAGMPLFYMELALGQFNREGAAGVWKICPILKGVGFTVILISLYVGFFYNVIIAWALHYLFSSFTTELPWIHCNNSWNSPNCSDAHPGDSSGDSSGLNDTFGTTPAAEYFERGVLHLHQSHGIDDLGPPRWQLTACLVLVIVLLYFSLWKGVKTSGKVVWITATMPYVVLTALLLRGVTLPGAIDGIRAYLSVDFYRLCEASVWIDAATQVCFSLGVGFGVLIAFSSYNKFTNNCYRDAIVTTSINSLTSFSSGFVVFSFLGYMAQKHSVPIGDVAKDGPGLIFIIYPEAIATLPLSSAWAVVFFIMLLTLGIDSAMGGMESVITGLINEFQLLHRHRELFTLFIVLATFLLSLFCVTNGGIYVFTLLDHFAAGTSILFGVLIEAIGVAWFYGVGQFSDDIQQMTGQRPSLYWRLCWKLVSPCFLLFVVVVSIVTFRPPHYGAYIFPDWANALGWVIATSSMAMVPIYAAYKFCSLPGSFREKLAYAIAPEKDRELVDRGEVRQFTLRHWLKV

D345N hDAT [3] = target: T3, D345N hDAT (Homo sapiens, UniProt Q01959, D345N); test: [3H]CFT saturation binding, intact HEK-293 cells stably expressing D345N DAT; settings: observed, mean ± SE
T3 sequence (Q01959 whole entry D345N): as the sequence (Q01959 whole entry D436N) above, with D345N, N436D counted along it

[4] = test system: WT + W84L hDAT (mixed cells); test: [3H]CFT saturation binding, mixed cells singly stably expressing WT and W84L DAT; set-up: species or system human; settings: observed upon mixing stable cells in equal volumes
[5] = test system: WT + D436N hDAT (mixed cells); assay type: binding, human; settings: observed upon mixing stable cells in equal volumes
[6] = test system: W84L + D345N hDAT (mixed cells); assay type: binding, human; settings: observed upon mixing stable cells in equal volumes
W84L hDAT [7] = target: T4, W84L hDAT (Homo sapiens, UniProt Q01959, W84L); test: [3H]CFT saturation binding, HEK-293 cells transiently transfected with W84L DAT; settings: transiently singly transfected
T4 sequence (Q01959 1-620 W84L): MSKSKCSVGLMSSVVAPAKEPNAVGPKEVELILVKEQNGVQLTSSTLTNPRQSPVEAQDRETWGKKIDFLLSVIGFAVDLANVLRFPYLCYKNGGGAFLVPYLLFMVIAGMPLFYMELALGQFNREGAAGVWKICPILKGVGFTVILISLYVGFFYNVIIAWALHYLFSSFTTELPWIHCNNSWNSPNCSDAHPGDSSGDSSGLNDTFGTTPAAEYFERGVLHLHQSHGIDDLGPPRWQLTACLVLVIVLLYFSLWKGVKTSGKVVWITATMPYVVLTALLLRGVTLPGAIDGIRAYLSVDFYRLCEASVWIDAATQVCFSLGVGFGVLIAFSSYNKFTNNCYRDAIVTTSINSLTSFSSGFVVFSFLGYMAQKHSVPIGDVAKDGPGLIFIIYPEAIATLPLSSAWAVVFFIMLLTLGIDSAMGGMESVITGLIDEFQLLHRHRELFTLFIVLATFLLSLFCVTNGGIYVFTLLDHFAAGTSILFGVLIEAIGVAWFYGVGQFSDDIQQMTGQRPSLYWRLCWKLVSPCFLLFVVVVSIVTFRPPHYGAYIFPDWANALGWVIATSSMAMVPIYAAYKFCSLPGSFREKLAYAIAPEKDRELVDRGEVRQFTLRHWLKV

D313N hDAT = D313N hDAT (Homo sapiens, UniProt Q01959, D313N); test: [3H]CFT saturation binding, HEK-293 cells transiently transfected with D313N DAT; settings: transiently singly transfected
Chain of D313N hDAT (Q01959 whole entry D313N): as the sequence (Q01959 whole entry D436N) above, with D313N, N436D counted along it

D345N hDAT [8] = target: T3, D345N hDAT; test: [3H]CFT saturation binding, HEK-293 cells transiently transfected with D345N DAT; settings: transiently singly transfected
D436N hDAT [9] = target: T2, D436N hDAT; test: [3H]CFT saturation binding, HEK-293 cells transiently transfected with D436N DAT; settings: transiently singly transfected
[10] = test system: WT + W84L hDAT (co-expressed); assay type: binding, human; settings: transiently co-transfected 1:1, WT + W84L, observed
[11] = test system: WT + D313N hDAT (co-expressed); assay type: binding, human; settings: transiently co-transfected 1:1, WT + D313N, observed
[12] = test system: WT + D345N hDAT (co-expressed); assay type: binding, human; settings: transiently co-transfected 1:1, WT + D345N, observed
[13] = test system: WT + D436N hDAT (co-expressed); assay type: binding, human; settings: transiently co-transfected 1:1, WT + D436N, observed
[14] = test system: W84L + D345N hDAT (co-expressed); assay type: binding, human; settings: transiently co-transfected 1:1, W84L + D345N, observed
W84L hDAT [15] = target: T4, W84L hDAT; settings: stably expressing cells, observed, mean ± SE
WT hDAT [16] = target: T1, WT hDAT; settings: transiently singly transfected, observed, mean ± SE

T1 sequence (Q01959 whole entry): as the sequence (Q01959 whole entry D436N) above, with N436D counted along it

SMILES	inhibition of intact cell [3H]CFT binding (DAT)	Bmax (WT hDAT [1])	Bmax (D436N hDAT [2])	Bmax (D345N hDAT [3])	Kd [4] [nM]	Kd [5] [nM]	Kd [6] [nM]	Bmax (W84L hDAT [7]; set paired with D345N (n=7))	Bmax (W84L hDAT [7]; set paired with WT (n=5))	Bmax (D313N hDAT)	Bmax (D345N hDAT [8]; set paired with W84L (n=6))	Bmax (D345N hDAT [8]; set paired with WT (n=4))	Bmax (D436N hDAT [9])	Kd [10] [nM]	Kd [11] [nM]	Kd [12] [nM]	Kd [13] [nM]	Kd [14] [nM]	Bmax (W84L hDAT [15])	Bmax (WT hDAT [16])
C[n+]1ccc(-c2ccccc2)cc1 [MPP^+]	completely inhibited	–	–	–	–	–	–	–	–	–	–	–	–	–	–	–	–	–	–	–
COC(=O)[C@H]1[C@@H](c2ccc(F)cc2)C[C@@H]2CC[C@H]1N2C [[^3H]CFT, (−)-2-β-carbomethoxy-3-β-(4-fluorophenyl)tropane]	–	0.55 ± 0.03 (6) pmol/mg	0.50± 0.08 (4) pmol/mg	0.57 ± 0.13 (4) pmol/mg	5.33 ± 0.95	25.9 ± 4	2.01 ± 0.67	0.94 ± 0.13 (7) pmol/mg	0.82 ± 0.14 (5) pmol/mg	0.41± 0.03 (4) pmol/mg	0.51 ± 0.12 (6) pmol/mg	0.62 ± 0.10 (4) pmol/mg	0.94 ± 0.04 (3) pmol/mg	4.4 ± 0.77	6.42 ± 1.1	48.2 ± 10.3	103 ± 5	6.75 ± 3.22	0.75 ± 0.16 (8) pmol/mg	0.79 ± 0.21 (4) pmol/mg
